Experimental data taken from PMC9315884, “New Membrane Active Antibacterial and Antiviral Amphiphiles Derived from Heterocyclic Backbone of Pyridinium-4-Aldoxime” (Pharmaceuticals, 2022).
Where “and” joins values, the source holds several entries; their conditions need not be identical. Equal entries are not always repeated. Where two headings read alike, the source gives them in different places.

Key:
Escherichia coli DH5α = assay: MIC determination before AFM; assay type: cell-based
[1] = test system: Escherichia coli DH5α cells; assay: AFM, bright-field and SYTO9/PI fluorescence microscopy of treated cells; assay type: cell-based; details: E. coli DH5α
Procedure: Optical and atomic force microscopy of the immobilized untreated and treated cells was performed to visualize the effect of Py-C12 on the bacterial membrane. For these experiments we used Escherichia coli DH5α cells because these cells allowed solid immobilization with persevered cell viability.
After making sure that the cells were properly immobilized and proliferating (a few new generations of cells were observed via optical microscopy), we started the treatment. To accelerate the process of time-dependent membrane damage, the cells were treated with the 4xMIC of Py-C12 for three hours after which the sample was rinsed with the fresh growth medium.
To estimate the percentage of cells whose membrane had been permeabilized by the treatment, the same group of cells was stained simultaneously with two fluorescent nucleic dyes, SYTO9 and propidium iodide (PI). […] When applied together, PI tends to displace SYTO9 from nucleic acid and the cells fluorescence in red. […]
AFM measurements of immobilized cells, both untreated and treated, were performed using the Nano-wizard IV system (JPK/Bruker, Berlin, Germany) operating in quantitative imaging (QI) mode with SNL-B probes (Bruker, Billerica, MA, USA). The AFM system was integrated with an IX73 inverted fluorescence optical microscope (Olympus, Tokyo, Japan). […]

[2] = test system: Salmonella enterica food isolate; assay: Broth microdilution assay (MIC); assay type: cell-based; details: 18 h, S. enterica food isolate
Procedure: (§1) The antibacterial activity of all compounds was evaluated by determining the minimum inhibitory concentration (MIC), which is defined as the lowest concentration of the compound at which no visible bacterial growth is detected. The compounds were tested against representatives of Gram-positive and Gram-negative strains, including the ESKAPE bacterium Staphylococcus aureus ATCC25923 and the clinical isolate of methicillin-resistant S. aureus (MRSA), which are known for their pathogenicity.
(§2) The collection included five Gram-positive strains, including Staphylococcus aureus (ATCC 25923 and a methicillin-resistant Staphylococcus aureus clinical strain MRSA), Bacillus cereus ATCC 14579, Enterococcus faecalis ATCC 29212, and Listeria monocytogenes ATCC 7644; and three Gram-negative strains: Escherichia coli ATCC 25922, Pseudomonas aeruginosa ATCC 27853 and the food isolate Salmonella enterica. All microbial strains were maintained at ™80 °C for long-term storage and subcultured on Mueller-Hinton (MH) agar (Biolife, Italy) prior to broth microdilution experiments. The MH plates were stored at +4 °C for no longer than one month.
(§3) Antibacterial activity was evaluated using the Broth Microdilution Assay according to the Clinical and Laboratory Standard Institute’s Methods for Dilution Antimicrobial Susceptibility Test for Bacteria That Grow Aerobically; Approved Standard-Tenth Edition.
(§4) The stock solution of QAS (10 mg/mL) was prepared in 4% DMSO. Then, 100 µL of the tested QAS was added to the first well of the microtiter plate. Twofold serial dilutions in Muller-Hinton broth were performed over the entire plate at a concentration range of 5 mg/mL to 5 µg/mL. To each well, 50 µL of mid-exponentially grown inoculum containing 10^5 CFU/mL in Mueller-Hinton broth was added and incubated at 37 °C for 18 hours. The minimum inhibitory concentration (MIC) was determined as the lowest concentration at which no visually detectable bacterial growth occurred in the wells.

[3] = test system: methicillin-resistant Staphylococcus aureus clinical strain MRSA; assay: Broth microdilution assay (MIC); assay type: cell-based
Procedure: as §1, §2, §3, §4

[4] = test system: Listeria monocytogenes ATCC7644; assay: Broth microdilution assay (MIC); assay type: cell-based
Procedure: as §1
(§5) All microbial strains were maintained at ™80 °C for long-term storage and subcultured on Mueller-Hinton (MH) agar (Biolife, Italy) prior to broth microdilution experiments. The MH plates were stored at +4 °C for no longer than one month.
as §3
as §4, with “To each well, 50 µL of mid-exponentially grown inoculum containing 10^5 CFU/mL in Mueller-Hinton broth was added and incubated at 37 °C for 18 hours.” left out

[5] = test system: Staphylococcus aureus ATCC25923; assay: Broth microdilution assay (MIC); assay type: cell-based; details: for MIC: Staphylococcus aureus
Procedure: as §1, §5, §3
as §4, with “To each well, 50 µL of mid-exponentially grown inoculum containing 10^5 CFU/mL in Mueller-Hinton broth was added and incubated at 37 °C for 18 hours.” left out

[6] = test system: Escherichia coli ATCC25922; assay: Broth microdilution assay (MIC); assay type: cell-based; details: ATCC25922, 18 h
Procedure: as §1, §5, §3
as §4, with “To each well, 50 µL of mid-exponentially grown inoculum containing 10^5 CFU/mL in Mueller-Hinton broth was added and incubated at 37 °C for 18 hours.” left out

[7] = test system: Bacillus cereus ATCC14579; assay: Broth microdilution assay (MIC); assay type: cell-based
Procedure: as §1, §5, §3
as §4, with “To each well, 50 µL of mid-exponentially grown inoculum containing 10^5 CFU/mL in Mueller-Hinton broth was added and incubated at 37 °C for 18 hours.” left out

[8] = test system: Enterococcus faecalis ATCC29212; assay: Broth microdilution assay (MIC); assay type: cell-based
Procedure: as §1, §5, §3
as §4, with “To each well, 50 µL of mid-exponentially grown inoculum containing 10^5 CFU/mL in Mueller-Hinton broth was added and incubated at 37 °C for 18 hours.” left out

[9] = test system: Pseudomonas aeruginosa ATCC27853; assay: Broth microdilution assay (MIC); assay type: cell-based
Procedure: as §1, §5, §3
as §4, with “To each well, 50 µL of mid-exponentially grown inoculum containing 10^5 CFU/mL in Mueller-Hinton broth was added and incubated at 37 °C for 18 hours.” left out

[10] = test system: Tobacco mosaic virus (TMV); assay: Antiphytoviral activity assay (local lesions on host plant leaves); assay type: in vivo, Tobacco mosaic virus on Datura stramonium; details: Datura stramonium leaves
Procedure: Leaves of Nicotiana tabacum L. cv. Samsun plants systemically infected with Tobacco mosaic virus (TMV) were ground in 0.06 mol/L phosphate buffer, pH 7.0 (1:1, w/v) to prepare virus inocula. […] Leaves of the local host Datura stramonium L. were dusted with silicon carbide (Sigma-Aldrich, St. Louis, MO, USA) before virus inoculation, and the inoculum was diluted with inoculation buffer to obtain 5–20 lesions per inoculated leaf. Experiments were performed when the experimental plants reached the 4–6 leaf stage.
The tested QAS (10 mg/mL) were dissolved in 4% DMSO and added to the virus inocula at a final concentration of 100 µg/mL. DMSO was added to the control virus inocula at the same concentration. The control and treated plants were then rubbed with the prepared inocula and the antiviral activity of the tested compounds was evaluated by the percentage inhibition of the number of local lesions on the leaves of the treated and control plants as described in [40]. The obtained data were analyzed in Excel (Microsoft Office) and significant differences were determined by t-test.

RPE1 cells = assay: Cytotoxicity (MTS assay); details: 48 h
Procedure: (§6) Keratinocytes are the primary cell type found in the outermost layer of the skin. Therefore, HaCaT cells were used as a model for human skin, and RPE1 are retinal pigment epithelial cells, thus a model for epithelial cell type.
(§7) Cells were grown in DMEM media in a humidified environment with 5% CO2 and 37 °C. To determine cytotoxicity, a twofold serial dilution of a tested compound starting at 5 mg/mL was prepared in a 96-well plate. Five thousand cells were pipetted into each well, and the cells were grown for an additional 48 h. Then, the reagent MTS (20 μL) was added to the cells according to the manufacturer’s instructions (CellTiter 96® Aqueous One Solution Cell Proliferation Assay, Promega). After 3 h of incubation, the absorbance was measured at 490 nm. IC50 values were determined by plotting compound concentration against absorbance using GraFit6 software.

HaCaT cells = assay: Cytotoxicity (MTS assay); details: 48 h
Procedure: as §6, §7

[11] = compound 100 µg/mL inoculated simultaneously with TMV

| SMILES | MIC [2] | MIC ([3]; MRSA, 18 h) | MIC ([4]; ATCC7644, 18 h) | MIC ([5]; ATCC25923, 18 h) | MIC [6] | MIC ([7]; ATCC14579, 18 h) | MIC ([8]; ATCC29212, 18 h) | MIC ([9]; ATCC27853, 18 h) | Number of local lesions (LLN ± SD) [10, 11] | Cytotoxicity in words (RPE1 cells) | Cytotoxicity in words (HaCaT cells) | other results |
| --- | --- | --- | --- | --- | --- | --- | --- | --- | --- | --- | --- | --- |
| CCCCCCCCCCCC[n+]1ccc(C=NO)cc1 [Py-C12] | 630 µg/mL and 1700 µM | 310 µg/mL | 630 µg/mL and 1700 µM | 80 µg/mL | 630 µg/mL and 1700 µM | 1250 µg/mL | 630 µg/mL and 1700 µM | 2500 µg/mL and 6730 µM | 3.0±1.1 |  |  | MIC against E. coli DH5α in words (Escherichia coli DH5α): equivalent to that of E. coli ATTC 25922; effect on number of bacterial cells (bright-field) ([1]; 4xMIC, 3 h): bacteriostatic effect; percentage of permeabilized cells ([1]; 4 × MIC, 3 h treatment, SYTO9/PI staining, 344 cells): 87%; Percentage of inhibition of local lesions ([10]; compound 100 µg/mL inoculated simultaneously with TMV, vs control plants): 78.1% |
| CCCCCCCCCCCCCC[n+]1ccc(C=NO)cc1 [Py-C14] | 2500 µg/mL and 6260 µM | 160 µg/mL | 310 µg/mL and 780 µM | 80 µg/mL | 630 µg/mL and 1580 µM | 1250 µg/mL | 310 µg/mL and 780 µM | 2500 µg/mL and 6260 µM | 1.0±0.4 | moderately toxic | moderately toxic | fold higher LLN than the control BAB ([10]; 100 µg/mL): 5 fold |
| ON=Cc1ccncc1 [Py-4-ox, pyridine-4-aldoxime, reference compound] | 5000 µg/mL and 40900 µM |  |  |  |  |  |  |  |  | moderately toxic | moderately toxic | MIC ([3]; 18 h, S. aureus clinical/MRSA, read-out: MIC): > 5000 µg/mL; MIC ([4]; 18 h, L. monocytogenes ATCC7644, read-out: MIC): > 5000 µg/mL and > 40900 µM; MIC ([5]; S. aureus ATCC25923, 18 h, 37 °C, read-out: MIC): > 5000 µg/mL; MIC ([6]; E. coli ATCC25922, read-out: MIC): > 5000 µg/mL and > 40900 µM; MIC ([7]; 18 h, B. cereus ATCC14579, read-out: MIC): > 5000 µg/mL; MIC ([8]; 18 h, E. faecalis ATCC29212, read-out: MIC): 5000 µg/mL and 40900 µM; MIC ([9]; 18 h, P. aeruginosa ATCC27853, read-out: MIC): > 5000 µg/mL and > 40900 µM |
| CCCCCCCCCCCCCCCC[n+]1ccc(C=NO)cc1 [Py-C16] | 5000 µg/mL and 11700 µM | 160 µg/mL | 1250 µg/mL and 2920 µM | 40 µg/mL | 160 µg/mL and 370 µM | 160 µg/mL | 2500 µg/mL and 5850 µM | 2500 µg/mL and 5850 µM |  | moderately toxic | moderately toxic | MIC ([3]; MRSA): 160 µg/mL; fold higher MIC than CPC ([5]; S. aureus ATCC25923): 28 fold; fold higher MIC than cefotaxime ([5]; S. aureus ATCC25923): 10 fold |
